# In patent US20220043347A1, “ACTINIC RAY-SENSITIVE OR RADIATION-SENSITIVE RESIN COMPOSITION, RESIST FILM, PATTERN FORMING METHOD, AND METHOD FOR MANUFACTURING ELECTRONIC DEVICE” (FUJIFILM Corporation, priority 2019, published 2022):
# Assay: Acid dissociation constant (pKa) determined by computation (ACD/Labs Software Package 1; Gaussian 16 DFT where not calculable)
# Conditions: acid generated from photoacid generator B
# From the text: In the present specification, an acid dissociation constant (pKa) represents a pKa in an aqueous solution, and is specifically a value determined by computation from a value based on a Hammett's substituent constant and database of publicly known literature values, using the following software package 1. Any of the pKa values described in the present specification indicate values determined by computation using the software package.
# Software Package 1: Advanced Chemistry Development (ACD/Labs) Software V 8.14 for Solaris (1994-2007 ACD/Labs).
# As described above, the pKa in the present specification refers to a value determined by computation from a value based on a Hammett's substituent constant and database of publicly known literature values, using the software package 1, but in a case where the pKa cannot be calculated by the method, a value obtained by Gaussian 16 based on density functional theory (DFT) shall be adopted.
# In addition, the pKa in the present specification refers to a “pKa in an aqueous solution” as described above, but in a case where the pKa in an aqueous solution cannot be calculated, a “pKa in a dimethyl sulfoxide (DMSO) solution” shall be adopted.
# Furthermore, in the measurement of the acid dissociation constant (pKa) of an acid generated from the photoacid generator B, specifically, the pKa is a value determined by subjecting a compound formed by substituting each cationic moiety in the compounds B-1 to B-29 with […](for example, in a case of the compound B-1, a compound formed by substituting the triphenylsulfonium cation with H^+) to computation from a value based on a Hammett's substituent constant and database of publicly known literature values, using Software Package 1 of ACD/Labs, as described above. In addition, in a case where pKa could not be calculated by the method, a value obtained by Gaussian 16 based on density functional theory (DFT) was adopted.
# In the following table, “pKa1” represents an acid dissociation constant of the first stage, “pKa2” represents an acid dissociation constant of the second stage, and “pKa3” represents an acid dissociation constant of the third stage. A smaller value of pKa means a higher acidity. […]
row,SMILES,Difference between acid dissociation constant a1 and acid dissociation constant a2
1,O=C(CC(F)(F)F)[N-]S(=O)(=O)C(F)(F)C(F)(F)C(F)(F)S(=O)(=O)[O-].c1ccc([S+](c2ccccc2)c2ccccc2)cc1.c1ccc([S+](c2ccccc2)c2ccccc2)cc1 [Compound B-1],3.17
2,COc1ccc([S+](c2ccccc2)c2ccccc2)cc1.COc1ccc([S+](c2ccccc2)c2ccccc2)cc1.O=S(=O)([O-])C(F)(F)C(F)(F)C(F)(F)S(=O)(=O)[N-]C1CCCCC1 [Compound B-2],9.59
3,O=C(O)C(F)(F)C(F)(F)C(F)(F)C(=O)OC12CC3CC(CC(COC(=O)C(F)(F)S(=O)(=O)O)(C3)C1)C2 [Compound B-3],2.92
4,O=C(COC(=O)C(F)(F)S(=O)(=O)O)NC(=O)C(F)(F)F [Compound B-4],9.23
5,CS(=O)(=O)[N-]C(=O)C(F)(F)C(F)(F)C(F)(F)C(=O)OCC(F)S(=O)(=O)[O-].c1ccc([S+](c2ccccc2)c2ccccc2)cc1.c1ccc([S+](c2ccccc2)c2ccccc2)cc1 (stereo not drawn) [Compound B-5],2.55
6,COc1ccc([S+](c2ccccc2)c2ccccc2)cc1.COc1ccc([S+](c2ccccc2)c2ccccc2)cc1.O=C(OCCCS(=O)(=O)[O-])C(F)(F)S(=O)(=O)[O-] [Compound B-6],4.82
7,CS(=O)(=O)NS(=O)(=O)CCCOC(=O)C(F)(F)S(=O)(=O)O [Compound B-11],3.23
8,CCCCC(CC)C(=O)NS(=O)(=O)C(F)(F)C(F)(F)C(F)(F)S(=O)(=O)NS(=O)(=O)C(F)(F)F (stereo not drawn) [Compound B-12],11.4
9,O=C([O-])CCCOC(=O)C(CS(=O)(=O)[O-])C(F)(F)F.O=S(=O)(c1ccc([S+](c2ccccc2)c2ccccc2)cc1)C1CCCCC1.O=S(=O)(c1ccc([S+](c2ccccc2)c2ccccc2)cc1)C1CCCCC1 [Compound B-14],3.63
10,CC(C)(C#N)C(=O)[N-]S(=O)(=O)C(F)(F)C(F)(F)C(F)(F)S(=O)(=O)[N-]S(C)(=O)=O.Cc1ccc(-[s+]2c3ccccc3c3ccccc32)cc1.Cc1ccc(-[s+]2c3ccccc3c3ccccc32)cc1 [Compound B-15],2.79
11,CC1(C)C2CCC1(CS(=O)(=O)[N-]S(=O)(=O)C(F)(F)C(F)(F)C(F)(F)S(=O)(=O)[O-])C(=O)C2.Cc1ccc([S+](c2ccccc2)c2ccccc2)cc1.Cc1ccc([S+](c2ccccc2)c2ccccc2)cc1 (stereo not drawn) [Compound B-16],0.74
12,O=C(NS(=O)(=O)C(F)(F)C(F)(F)C(F)(F)S(=O)(=O)O)c1ccccc1I [Compound B-22],2.97
13,CC1(OC(=O)c2cc(C(=O)NS(=O)(=O)C(F)(F)C(F)(F)C(F)(F)S(=O)(=O)NS(=O)(=O)C(F)(F)F)cc(C(=O)OC3(C)CCCC3)c2)CCCC1 [Compound B-23],10.13
14,Cc1cc([S+](c2ccc(C(F)(F)F)cc2)c2ccc(C(F)(F)F)cc2)cc(C)c1OCC(=O)OC(C)(C)C.Cc1cc([S+](c2ccc(C(F)(F)F)cc2)c2ccc(C(F)(F)F)cc2)cc(C)c1OCC(=O)OC(C)(C)C.Cc1cc([S+](c2ccc(C(F)(F)F)cc2)c2ccc(C(F)(F)F)cc2)cc(C)c1OCC(=O)OC(C)(C)C.O=C([N-]S(=O)(=O)C(F)(F)C(F)(F)C(F)(F)S(=O)(=O)[O-])c1ccc(OS(=O)(=O)C(F)(F)C(F)(F)C(F)(F)S(=O)(=O)[O-])cc1 [Compound B-25],2.53
15,CC(C)(C)OC(=O)c1cc(OS(=O)(=O)C(F)(F)S(=O)(=O)[O-])cc(C(=O)[N-]S(=O)(=O)C(F)(F)S(=O)(=O)[O-])c1.Cc1cc(C)cc([S+](c2cc(C)cc(C)c2)c2cc(C(F)(F)F)cc(C(F)(F)F)c2)c1.Cc1cc(C)cc([S+](c2cc(C)cc(C)c2)c2cc(C(F)(F)F)cc(C(F)(F)F)c2)c1.Cc1cc(C)cc([S+](c2cc(C)cc(C)c2)c2cc(C(F)(F)F)cc(C(F)(F)F)c2)c1 [Compound B-26],4.99
